The text below walks through data of patent US4657897A, “N^6 -substituted adenosines for treating pain” (Warner-Lambert Company, priority 1985, dated 1987).

Assay [1] in a line: Mouse Activity and Screen Test (MAST), screen test failure (ST). The following applies: for Inhibition of screen test failure: percent of mice falling off the screen. In kind it is in vivo, mouse (Swiss-Webster, male). The method, then: Treatments are administered intraperitoneally one hour prior to testing. […] Compounds are dissolved or suspended in 0.2% Methocel. Control animals are injected with Methocel.
The compounds are identified in the Examples.

For a further assay, the target named is T1, adenosine A1 receptor (Rattus norvegicus, UniProt P25099).
T1 construct: Whole brain minus cerebellum and brainstem from male Long Evans rats; from tissue; host or cells: rat whole brain minus cerebellum and brainstem (male Long Evans), membranes
T1 sequence (P25099 1-326): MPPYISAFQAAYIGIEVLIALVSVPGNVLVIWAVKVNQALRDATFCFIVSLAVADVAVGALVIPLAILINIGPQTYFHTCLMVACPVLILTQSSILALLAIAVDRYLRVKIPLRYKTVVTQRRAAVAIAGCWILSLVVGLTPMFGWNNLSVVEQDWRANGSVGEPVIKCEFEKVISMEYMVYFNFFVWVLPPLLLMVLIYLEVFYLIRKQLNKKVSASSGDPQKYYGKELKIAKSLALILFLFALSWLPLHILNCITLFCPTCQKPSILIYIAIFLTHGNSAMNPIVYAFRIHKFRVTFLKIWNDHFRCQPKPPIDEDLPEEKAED
Description: Adenosine Receptor Binding--A1 Receptor Affinity (RBA1), [3H]-CHA binding, rat whole brain membranes. Also noted: species or system rat (male Long Evans). The settings on record: 1.0 nM [3H]-CHA, 25° C., 1 h. The method, then:
Adenosine Receptor Binding--A1 Receptor Affinity (RBA1)
Whole brain minus cerebellum and brainstem from male Long Evans rats (150-200 g) was homogenized in 30 volumes of ice-cold 0.05M Tris-HCl buffer pH 7.7 using a Brinkman Polytron PT-10, (setting number 6 for 20 seconds) and centrifuged for ten minutes at 20,000×g (Sorvall RC-2), 4° C. The supernatant was discarded, and the pellet was resuspended and centrifuged as before. The pellet was resuspended in 20 ml Tris-HCl buffer containing two International Units/ml of adenosine deaminase (Sigma type III from calf intestinal mucosa), incubated at 37° C. for 30 minutes, then subsequently at 0° C. for ten minutes. The homogenate was again centrifuged, and the final pellet was resuspended in ice-cold 0.05M Tris-HCl buffer pH 7.7 to a concentration of 20 mg/ml original wet tissue weight and used immediately.
Tissue homogenate (10 mg/ml) was incubated in 0.05M Tris-HCl buffer pH 7.7 containing 1.0 nM [^3 H]-N^6 -cyclohexyladenosine[^3 H]-CHA) with or without test agents in triplicate for one hour at 25° C. Incubation volume was 2 ml. Unbound [^3 H]-CHA was separated by rapid filtration under reduced pressure through Whatman glass fiber (GF/B) filters. The filters were rinsed three times with 5 ml of ice cold 0.05M Tris-HCl buffer pH 7.7. The radio-labeled ligand retained on the filter was measured by liquid scintillation spectrophotometry after shaking the filters for one hour or longer on a mechanical shaker in 10 ml of Beckman Ready-Solv HP scintillation cocktail.
Nonspecific binding was defined as the binding which occurred in the presence of 1 mM theophylline. The concentration of test agent which inhibited 50% of the specific binding (IC50) was determined by nonlinear computer curve fit. The Scatchard plot was calculated by linear regression of the line obtained by plotting the amount of radioligand bound (pmoles/gram of tissue) [formula] Since the amount of radioligand bound was a small fraction of the total amount added, free radioligand was defined as the concentration (nM) of radioligand added to the incubation mixture. The Hill coefficient was calculated by linear regression of the line obtained by plotting the log of the bound radioligand vs the log of the [formula] The maximal number of binding sites (Bmax) was calculated from the Scatchard plot.

The next assay relates to rat heart. In words: Coronary blood flow (PCS2A), isolated perfused rat heart. Also noted: species or system rat (male). The following applies: read-out: effect on heart rate (HR). As to the method:
Male rats (400-600 gms) are pretreated with Na heparin 2000 units and anesthetized with Na pentobarbital (50 mg/kg) administered intraperitoneally. Once anesthetized, the rat heart is rapidly excised, the ascending aorta fitted to the aortic perfusion cannula, and secured with a ligature. The coronary arteries are perfused initially at a rate of about 15 ml/min for two to three minutes, afterwhich they are perfused at constant pressure of 70 mm Hg and temperature of 37° C. The electrocardiogram (ECG) is recorded using two platinum electrodes positioned at the base and apex of the left ventricle. A second heart is excised, cannulated, and perfused by the same method outlined above. Both hearts are tested in parallel. The standard physiological salt solution (PSS) is a modified Krebs-Hanseleit bicarbonate buffer of the following composition in mM concentration: NaCl, 127; NaHCO3, 25; dextrose, 5.5; Na Pyruvate, 2.0; KCl, 4.7; MgSO4, 1.1; KH 2PO4, 1.2; CaCl2.2H2 O, 2.5; CaNa2 EDTA, 0.05.
A 30-minute stabilization period is observed before starting the test protocol.
The microprocessor control system is a servo mechanism which permits coronary perfusion pressure (CPP) and drug concentration to be maintained constant independent of changes in coronary flow. The level at which CPP and drug concentration are maintained can be changed by commands communicated through the microprocessor keyboard. Dose-response curves are carried out by perfusing concentrated drug solution (DC) at rates proportional to total coronary flow (CFT). Drug concentrations are increased by proportionate increases in the rate of DC infusion over CFT via the microprocessor keyboard. The proportional flow rates for DC:CFT is about 0.0002:1 at the low end and 0.02:1 at the high end of the dose-response curve. Dose-response curves encompassing at least two log doses are carried out by preparing two DCs with a concentration difference of 1:100. Following the first dose range of two log doses, the DC are switched, proportional pumping rate adjusted, and the dose-responsecurve continued for another two log doses. The standard dose-response curve is carried out in one-half log dose increments starting at a subthreshold dose and ending at a dose which produces near maximal response in activity. Standard reference compounds are tested over the range of 10^-9 to 10^-6 M.
Measurements are for heart rate (HR) and coronary flow (CF). Units are: HR, beats/minute (bpm) and CF, milliliters/minute (ml/min). HR is calculated from the ECG strip chart recording and CF is calculated by recording analog outputs from pumps 1 and 2. Outputs from pump #1=CFT and the output from pump #2=CF for heart B (CFB). CF for heart A (CFA) is calculated (CFT -CFB =CFA).

Each structure is given as a SMILES string. Where only a bound is given, the exact number is not on record here.

As usually defined, the IC50 is the concentration needed to halve the response being measured.

In the case of `OC[C@H]1O[C@@H](n2cnc3c(NCCC(c4ccccc4)c4ccccc4)ncnc32)[C@H](O)[C@@H]1O` [Example 2, N^6-(3,3-Diphenylpropyl)adenosine], the “Inhibition of screen test failure” value in assay [1] (10 mg/kg intraperitoneal), in assay [1] (30 mg/kg intraperitoneal) and in assay [1] (100 mg/kg intraperitoneal) was 0% each time. In addition, in assay [1] (Mus musculus, ip, lowest dose at which an A rating is achieved, screen test, intraperitoneal, 1 h prior to testing, read-out: MAST ST LAD), the minimal effective dose was more than 100 mg/kg. This compound displayed an IC50 on adenosine A1 receptor of 139 nM. In the assay on rat heart (1 × 10^-6 Molar), the activation at 1 µM was -19%. Besides, the activation at 0.1 µM in the assay on rat heart (1 × 10^-7 Molar) is -5%. In addition, the activation at 0.01 µM in the assay with rat heart (1 × 10^-8 Molar) was -2%. For the same compound, in the assay with rat heart (3 × 10^-6 Molar), the activation at 3 µM was -34%.
